{"source": "patent EP0413839A1", "about": "“GHRH analogs” (The Administrators of The Tulane Educational Fund, priority 1989, dated 1991)", "origin": "cited, not measured here", "note": "No end group written: not given here.", "data": [{"conditions": "percent of the potency of hGRF", "values": [{"substance": "hGRF(1-23)-NH₂ (YADAIFTNSYRKVLGQLSARKLL-NH2; UniProt P01286 32-54, looked up, fragment) [shortened hGRF fragment with amidated C-terminus]", "potency of hGRF": "0.24%"}, {"substance": "hGRF(1-27)-NH₂ (YADAIFTNSYRKVLGQLSARKLLQDIM-NH2; UniProt P01286 32-58, looked up, fragment) [shortened hGRF fragment with amidated C-terminus]", "potency of hGRF": "1.12%"}, {"substance": "hGRF(1-29)OH", "potency of hGRF": "12.6%"}, {"substance": "hGRF(1-37)-NH₂ (YADAIFTNSYRKVLGQLSARKLLQDIMSRQQGESNQE-NH2; UniProt P01286 32-68, looked up, fragment) [fragment of human growth hormone releasing factor terminated with an amide group]", "potency of hGRF": "at least 50%"}]}]}
